For eight compounds, EC50 results are on record in BindingDB's records for doi:10.7270/Q2057DDB (Nmmlsc, 2011).

The first assay addresses T1, Vacuolar aminopeptidase 1 (Saccharomyces cerevisiae (strain ATCC 204508 / S288c), UniProt P14904).
T1 sequence (P14904 whole entry): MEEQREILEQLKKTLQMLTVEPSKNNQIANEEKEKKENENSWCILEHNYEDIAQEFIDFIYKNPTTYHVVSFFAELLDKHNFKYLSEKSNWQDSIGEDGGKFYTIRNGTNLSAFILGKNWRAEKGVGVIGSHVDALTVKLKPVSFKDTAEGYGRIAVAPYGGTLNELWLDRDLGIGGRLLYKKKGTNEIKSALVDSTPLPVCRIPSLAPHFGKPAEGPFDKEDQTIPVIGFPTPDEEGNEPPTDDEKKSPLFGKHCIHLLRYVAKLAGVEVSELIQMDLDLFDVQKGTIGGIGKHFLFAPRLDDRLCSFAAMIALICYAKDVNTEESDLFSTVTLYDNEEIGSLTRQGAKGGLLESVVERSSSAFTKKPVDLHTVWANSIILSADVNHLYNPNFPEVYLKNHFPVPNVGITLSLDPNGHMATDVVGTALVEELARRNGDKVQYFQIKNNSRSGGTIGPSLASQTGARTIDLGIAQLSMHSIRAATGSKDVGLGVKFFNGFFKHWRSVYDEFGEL
In words: LAP4-GFP modulation potency, analog picks, SAR follow-up, cell-based, cherry pick 3, flow cytometry (AID 488823).
Conditions: not given
In general terms: Flow cytometry measures light scatter and fluorescence of single cells or particles in a stream.
For orientation: EC50 means the concentration that produces a half-maximal response. Higher therefore signals weaker potency. Consider `NC(=O)c1ccnc2c(O)cccc12` [8-hydroxyquinoline-4-carboxamide;2,2,2-trifluoroacetic acid], for which the EC50 came out at 35.4 µM.

Still in this assay, the particulars now being: inactive by the depositor's call.
For `CCC(C)Nc1nc(N)c([N+](=O)[O-])c(Nc2ccccc2OC)n1` (stereo not drawn) [SMR000434817], the midpoint of the response, the EC50, lay at 35.9 µM. The same measure, in the same setting: as for `CCC(C)Nc1nc(N)c([N+](=O)[O-])c(Nc2cc(OC)ccc2OC)n1` (stereo not drawn) [N2-butan-2-yl-N4-(2,5-dimethoxyphenyl)-5-nitro-pyrimidine-2,4,6-triamine], the figure is 37.3 µM; as for `Oc1ccc(Cl)c2cccnc12` [MLS002695956], 208 µM.

`Cn1cccc1C(=O)Nc1nc(-c2ccccn2)cs1` [SMR000064459] yielded an EC50 of 79.6 µM. In turn, `COc1cccc2c(Cl)c(CCCl)c(C)nc12` [MLS000720591] gave an EC50 of 86.4 µM. Same read-out and setting: as for `CCOC(=O)CS(=O)(=O)c1nc(-c2ccccc2)cc(C(F)(F)F)n1` [2-[4-phenyl-6-(trifluoromethyl)pyrimidin-2-yl]sulfonylacetic acid ethyl ester], the figure is 41.2 µM. As for `CCc1sc(C(=O)Nc2nc(-c3ccccn3)cs2)cc1C` [SMR001314827], the EC50 was 105 µM.
